The experiment has as its system CTLA-4/CD80 interaction. Briefly: In vitro CTLA-4/CD80 HTRF binding assay with triple-mutant anti-CTLA-4 scFv (Rip3). To be noted: no cathepsin B; up to 75 μM JK43 and prodrug; FIG. 2. As for the experimental part:
In addition to the above, an in vitro CTLA-4/CD80 HTRF (homogeneous time resolved fluorescence) binding assay was performed with cathepsin B activatable prodrug. Specifically, the HTRF assay was used to assess the ability of antibodies to block the CTLA-4/CD80 interaction using a CTLA-4/CD80 binding assay kit (cat. no. 64CTLA80PEG; Cisbio (Codolet, France)). […]
To the above, 4 μL of Tag1-CD80 protein and 4 μL of Tag2-CTLA-4 were added into a black 384-well low volume plate and then incubated at 37° C. for 10 minutes. […] These were used to measure the fluorescence energy transfer between donor Anti-Tag1 Eu Cryptate and acceptor Anti-Tag d2 reagent. Data was collected at different time points (1, 3, 8, 12 and 24 hours) and the FRET signals were measured on a envision multimode plate reader (PerkinElmer, Shelton, CT) using 340 nm as the excitation wavelength, a 620 nm filter for the Eu donor fluorescence detection, and a 665 nm filter for the acceptor fluorescence detection. HTRF signals were calculated as a ratio as follows: (intensity of 665 nm)/(intensity of 620 nm)×10,000, which was plotted against the WT/triple mutant antibody (5GSWT and 5GS 3′M (Rip3)) concentration to derive the EC50.
Background: TR-FRET usually uses a lanthanide donor and a delayed reading to cut background.

As to `c1ccc(COc2ccc3cn[nH]c3c2)cc1` [Stitch3, 6-phenylmethoxy-1H-indazole], the “rescue of the activity of the triple mutant scFv variant (Rip3)” value is on record as “rescues the activity”.

Source of the values: patent US20240156974A1, “COMPOSITIONS AND METHODS FOR MODULATION OF ANTIBODY ACTIVITY” (Institute For Cancer Research D/B/A Tha Research Institute …, priority 2021, published 2024).
